Experimental data reported in patent US20140294729A1, “METHODS FOR IDENTIFICATION AND USE OF AGENTS TARGETING CANCER STEM CELLS” (Whitehead Institute for Biomedical Research, priority 2008, published 2014).
Entries after “also recorded” stand apart in the source; their conditions may differ.

Assays:
Type in all cases: cell-based, human
HMLEshEcad cells [1] = experiment: High-throughput chemical screen for selective toxicity, HMLEshEcad vs HMLEshCntrl (ATP luminescence viability); details: for most compounds 10 uM, 3 days, duplicate
Experimental: We screened compounds for cytotoxicity against both HMLEshEcad and control HMLEshCntrl cells. Cells were seeded in 384-well plates, allowed to grow for one day, treated with compound and assayed for cell viability after three days using a luminescence assay; compounds were screened in duplicate for each cell line (FIG. 3A; See Example 3). We screened a collection of ˜16,000 compounds, including many with known bioactivity, natural extracts, modulators of histone deacetylases, and several diverse commercial libraries.
We developed conditions to use an ATP-based luminescence viability assay with 384-well plates in high throughput screening (see Example 3 for Methods). We screened a total of 16,000 compounds as part of our screen. […]
Using the measurements from the plate-normalized DMSO control wells, we constructed the distribution of luminescence intensities for each cell line in the absence of compound (FIG. 3A). […]
Information about the general automated HTS protocol is available online at broad.harvard.edu/chembio/index.html. […] For most compounds the final concentration in each well was calculated to be 10 uM.
The screen was performed in duplicate. […] The luminescent signal from each plate was detected using an automated plate reader (Perkin-Elmer Envision 1; Wellesley, Mass.). […]

HMLEshEcad cells [2] = experiment: Dose-response viability of HMLEshCntrl vs HMLEshEcad cells (validation of hits, 384-well, Cell-Titer-Glo); details: FIG. 4A; for selective toxicity towards HMLEshEcad cells relative to HMLEshCntrl cells: dose response on retesting
Experimental: (§1) FIG. 4A depicts dose response curves of HMLEshCntrl (A, light gray curve) and HMLEshEcad (A, dark gray curve) cells treated with the 8 compounds identified during the initial screen. 1000 cells of each line were seeded onto 384 well plates and treated with 8 different concentrations of compounds within a 2.5 log range. The cell viability after 3 day treatment was measured by Cell-Titer-Glo. […] FIG. 4B depicts dose response curves of HMLEshCntrl (curve with square data points) and HMLE-Twist (curve with triangular data points) cells treated with the same compounds as in (A). Note that selectivity of Salinomycin, Abamectin, Etoposide and Nigericin (Top, Left-to-Right) is retained even though a different method of EMT induction is used. […] 1 Day after seeding DMSO, Salinomycin (1.25 or 5 μM) or Abamectin (0.25 or 1.25 μM) was added at the indicated concentration. As the GFP vector contains a Blasticidin resistance gene, we used Blasticidin treatment as a positive control for the expansion of GFP-expressing control HMLE cells. After 3 day incubation the mix population of cells were analyzed by flow cytometry and the percentage of GFP-positive cells were determined. […] FIG. 4D depicts dose response curves of transformed HMLERshCntrl (light gray line) and HMLERshEcad (dark gray lines) cells treated with Salinomycin and Abamectin. Dotted line denotes the 50% fraction surviving.
We pursued 8 of the 32 compounds for further study and evaluated their effects across a range of doses.
For each of these compounds, we evaluated the effect on cell viability across a series of doses for sibling cell lines either induced into or not induced into EMT.
Information about the general automated HTS protocol is available online at broad.harvard.edu/chembio/index.html. The assay was initiated by plating 40 μL of medium containing 1000 cells/well into white 384-well opaque-bottom plates (Nunc, Rochester, N.Y.) using an automated plate filler (Bio-Tek μFiller; Winsooki, Vt.) and allowing the cells to adhere for 24 hours. 100 nL of compound stock solutions in dmso was transferred from stock plates into the 384-well assay plates using an automated pin-based compound transfer robot (CyBio CyBi-Well vario; Woburn, Mass.). For most compounds the final concentration in each well was calculated to be 10 uM.
The screen was performed in duplicate. For negative controls, entire dmso-treated control plates were employed, in addition to dmso-only control wells that were incorporated into each compound assay plate. The cells were assayed for luciferase activity with the addition 20 ul of CellTiter-Glo Luminescent Cell Viability Assay solution (Promega). The luminescent signal from each plate was detected using an automated plate reader (Perkin-Elmer Envision 1; Wellesley, Mass.).
(§2) Individual compounds were purchased from Sigma and dissolved in DMSO with the exception of nigericin which was dissolved in 100% ethanol. Activity of the compounds were quantified by generating dose-response curves for HMLE-shCntrl, HMLE-shEcad and HMLE-Twist under the same cell density and culture conditions described for the initial screen, using the 384-well plate based system.

HMLE-Twist cells = experiment: Dose-response viability of HMLEshCntrl vs HMLE-Twist cells; details: EMT induced by Twist, FIG. 4B
Experimental: as §1, §2

Structure (SMILES)	specific toxicity towards HMLEshEcad (siEcad) line in the primary screen (HMLEshEcad cells [1])	IC50 fold lower for HMLEshEcad cells vs HMLEshCntrl cells (HMLEshEcad cells [2]; 3 day treatment, 8 concentrations)	selective toxicity towards HMLEshEcad cells relative to HMLEshCntrl cells (HMLEshEcad cells [2])	selective toxicity towards HMLEshEcad cells relative to HMLEshCntrl cells (HMLEshEcad cells [2]; listed as Etoposide)	selectivity for HMLE-Twist cells vs HMLEshCntrl; dose-response curves compared with HMLEshEcad (HMLE-Twist cells)
COc1cc([C@@H]2c3cc4c(cc3[C@@H](O[C@@H]3O[C@@H]5CO[C@@H](C)O[C@H]5[C@H](O)[C@H]3O)[C@H]3COC(=O)[C@H]23)OCO4)cc(OC)c1O [etoposide]	did score positively	~10 fold	moderate to strong selectivity; also recorded: strong specificity	selective toxicity	is retained
CN(Cc1cnc2nc(N)nc(N)c2n1)c1ccc(C(=O)N[C@@H](CCC(=O)O)C(=O)O)cc1 [methotrexate]	did score positively	–	–	–	–
